Among the data in patent US9255090B2, “Heterocyclyl derivatives and their use as prostaglandin D2 receptor modulators” (Actelion Pharmaceuticals Ltd., priority 2012, dated 2016) are IC50 values, retold here.

For experiment [1], the target named is hCRTH2 receptor (Homo sapiens (Human), UniProt Q9Y5Y4). Description: hCRTH2 receptor membranes radioligand (3H-PGD2) displacement assay. Format: binding. The note with it: 3H-PGD2 radioligand displacement, HEK293-hCRTH2 membranes. The procedure, abridged:
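Compound was first mixed with buffer, then 3H-PGD2 was added at 2.5 nM, and the reaction was started with hCRTH2 membranes from HEK293 cells at 20 μg/well. After 90 min at room temperature, mixtures were filtered and washed with ice-cold buffer, and retained radioactivity was counted.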

The test system of experiment [2] is eosinophils. Description: Eosinophil shape change assay with human plasma. The class given is cell-based. As to conditions: Homo sapiens, Eosinophil, human plasma (50%), PGD2 100 nM activation, antagonistic activity. The procedure, abridged:
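Human polymorphonuclear cells stained with anti-CD49d-APC, combined with compound-preincubated human plasma (50% of final volume, 4×10^6 cells/ml) for 10 min at 37° C., then stimulated 5 min with 100 nM PGD2 and fixed. Flow cytometry scored percent eosinophils with increased forward scatter.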

Chain of hCRTH2 receptor (Q9Y5Y4 whole entry): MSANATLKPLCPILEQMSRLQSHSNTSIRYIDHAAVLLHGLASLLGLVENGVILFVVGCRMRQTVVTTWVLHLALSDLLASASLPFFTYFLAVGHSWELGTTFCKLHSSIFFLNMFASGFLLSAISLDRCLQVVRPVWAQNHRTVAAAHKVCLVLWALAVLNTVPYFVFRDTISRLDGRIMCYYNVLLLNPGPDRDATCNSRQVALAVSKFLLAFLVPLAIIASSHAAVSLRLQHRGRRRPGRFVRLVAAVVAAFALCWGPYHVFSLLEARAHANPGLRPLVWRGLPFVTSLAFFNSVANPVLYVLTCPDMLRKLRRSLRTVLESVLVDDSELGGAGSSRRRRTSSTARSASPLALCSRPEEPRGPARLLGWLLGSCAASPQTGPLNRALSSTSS

As to `CCOc1cc(CC(=O)O)ccc1-c1ccc(F)c2c1CN(C(=O)OCC1CCCCC1)CC2` [Example 397, 8-(4-Carboxymethyl-2-ethoxy-phenyl)-5-fluoro-3,4-dihydro-1H-isoquinoline-2-carboxylic acid cyclohexylmethyl ester], the half-inhibitory concentration (IC50) in experiment [1] stood at 0.0068 µM; in experiment [2], 0.015 µM.

`COCCOc1ccc(CC(=O)O)cc1-c1ccc(F)c2c1CN(C(=O)OCc1ccccc1)CC2` [Example 199, 8-[5-Carboxymethyl-2-(2-methoxy-ethoxy)-phenyl]-5-fluoro-3,4-dihydro-1H-isoquinoline-2-carboxylic acid benzyl ester]: the IC50 in experiment [1] came to 0.00049 µM; in experiment [2] it was 0.019 µM.

`COc1ccc(CC(=O)O)cc1-c1ccc(F)c2c1CN(C(=O)[C@@H]1C[C@H]1c1ccccc1F)CC2` (racemic) [Example 5, (±)-(3-{5-Fluoro-2-[trans-2-(2-fluoro-phenyl)-cyclopropanecarbonyl]-1,2,3,4-tetrahydro-isoquinolin-8-yl}-4-methoxy-phenyl)-acetic acid]: the IC50 in experiment [1] was determined as 0.00364 µM; in experiment [2], 0.012 µM.

`CCOc1ccc(CC(=O)O)cc1-c1ccc(F)c2c1CN(C(=O)C[C@@H](C)c1ccccc1)CC2` [Example 221, {4-Ethoxy-3-[5-fluoro-2-((R)-3-phenyl-butyryl)-1,2,3,4-tetrahydro-isoquinolin-8-yl]-phenyl}-acetic acid]: the IC50 was found to be 0.0012 µM in experiment [1] and 0.034 µM in experiment [2].

Turning to `COc1ccc(CC(=O)O)cc1-c1ccc(F)c2c1CN(C(=O)NCc1ccc(F)cc1)CC2` [Example 132, {3-[5-Fluoro-2-(4-fluoro-benzylcarbamoyl)-1,2,3,4-tetrahydro-isoquinolin-8-yl]-4-methoxy-phenyl}-acetic acid], the values for the IC50 in experiment [1] and in experiment [2] were 0.0151 µM and more than 1 µM, respectively.

Regarding `COc1ccc(CC(=O)O)cc1-c1ccc(F)c2c1CN(C(=O)CC1CCCc3ccccc31)CC2` (racemic) [Example 263], the IC50 in experiment [1] amounted to 0.0049 µM; in experiment [2], 0.064 µM.

Turning to `COc1ccc(CC(=O)O)cc1-c1ccc(F)c2c1CN(C(=O)CN(C)C(c1ccccc1)c1ccc(Cl)cc1)CC2` (racemic) [Example 253], the figures for the half-inhibitory concentration (IC50) in experiment [1] and in experiment [2] were 0.0106 µM and 0.399 µM, respectively.

With `CCOc1ccc(CC(=O)O)cc1-c1ccc(F)c2c1CN(C(=O)OCc1cccc(C)n1)CC2` [Example 371, 8-(5-Carboxymethyl-2-ethoxy-phenyl)-5-fluoro-3,4-dihydro-1H-isoquinoline-2-carboxylic acid 6-methyl-pyridin-2-ylmethyl ester], the IC50 in experiment [1] came to 0.0006 µM; in experiment [2] it was 0.023 µM.

With `CCOc1ccc(CC(=O)O)cc1-c1ccc(F)c2c1CN(C(=O)CCc1ccc(F)cc1)CC2` [Example 310, (4-Ethoxy-3-{5-fluoro-2-[3-(4-fluoro-phenyl)-propionyl]-1,2,3,4-tetrahydro-isoquinolin-8-yl}-phenyl)-acetic acid], the half-maximal inhibitory concentration (IC50) was found to be 0.0017 µM in experiment [1] and 0.007 µM in experiment [2].

`O=C(O)Cc1ccc(-c2ccc(F)c3c2CN(C(=O)OCc2ccccc2)CC3)c(OCC(F)(F)F)c1` [Example 411, 8-[4-Carboxymethyl-2-(2,2,2-trifluoro-ethoxy)-phenyl]-5-fluoro-3,4-dihydro-1H-isoquinoline-2-carboxylic acid benzyl ester]: the figures for the half-maximal inhibitory concentration (IC50) in experiment [1] and in experiment [2] were 0.001 µM and 0.013 µM, respectively.

Consider `CCOc1ccc(CC(=O)O)cc1-c1ccc(F)c2c1CN(C(=O)CC1CCOc3ccccc31)CC2` (racemic) [Example 226], for which the IC50 was determined as 0.0129 µM in experiment [1] and 0.043 µM in experiment [2].

Consider `CCOc1ccc(CC(=O)O)cc1-c1ccc(F)c2c1CN(C(=O)CCc1cccc(C)n1)CC2` [Example 329, (4-Ethoxy-3-{5-fluoro-2-[3-(6-methyl-pyridin-2-yl)-propionyl]-1,2,3,4-tetrahydro-isoquinolin-8-yl}-phenyl)-acetic acid], for which the half-maximal inhibitory concentration (IC50) amounted to 0.0042 µM in experiment [1] and 0.021 µM in experiment [2].

Take `CC(C)COc1ccc(CC(=O)O)cc1-c1ccc(F)c2c1CN(C(=O)OCc1ccccc1)CC2` [Example 198, 8-(5-Carboxymethyl-2-isobutoxy-phenyl)-5-fluoro-3,4-dihydro-1H-isoquinoline-2-carboxylic acid benzyl ester]: the IC50 in experiment [1] was found to be 0.00128 µM; in experiment [2], 0.072 µM.

Take `COc1ccc(CC(=O)O)cc1-c1ccc(F)c2c1CN(C(=O)CC1CCOc3ccccc31)CC2` (racemic) [Example 262]: the 50% inhibitory concentration (IC50) in experiment [1] was found to be 0.0084 µM; in experiment [2], 0.066 µM.
